# In paper PMC7433010, “Exploration of multi‐target effects of 3‐benzoyl‐5‐hydroxychromen‐2‐one in Alzheimer’s disease cell and mouse models” (Aging Cell, 2020):
# How the values were obtained:
# [1] = system: sarkosyl‐insoluble Tau; assay: TEM of sarkosyl‐insoluble Tau from STZ‐treated 3 × Tg‐AD mice; assay type: in vivo, mouse; conditions: STZ/LM‐031 mice
# Source text: Figure S7. Body weight, blood glucose, open field task, NeuN immunoreactivity, and TEM of sarkosyl-insoluble tau in STZ-treated 3×Tg-AD mice. (a) Body weight and blood glucose of the mice. […] (c) Representative IHC images for NeuN and intensity quantification in the hippocampus of mice. DG, dentate gyrus; CA1 and CA3, Cornu Ammonis areas 1 and 3. (d) TEM of sarkosyl-insoluble tau. p values, STZ vs. – STZ mice or STZ/LM-031 vs. STZ mice. *: p < 0.05, ^##: p < 0.01, ^##^#: p < 0.001. (one-way ANOVA with a post hoc Tukey test)
# [2] = PAMPA‐BBB permeability assay
# Description: The permeability of LM-031 was determined by a PAMPA-BBB assay. Briefly, the donor well (Millipore) was filled with 300 μl of LM-031 (1 μM) solution. […] The filter membrane (PVDF membrane, pore size 0.45 μm; Millipore) was coated with 4 μl of 20 mg/ml porcine polar brain lipid (Avanti Polar Lipids, Alabaster, AL, USA) in dodecane and the acceptor well was filled with 200 μl of acceptor buffer (5% DMSO in PBS). The filter plate was carefully placed on the donor plate to form a “sandwich” (consisting of aqueous donor on the bottom, artificial lipid membrane in the middle, and aqueous acceptor on the top). Each compound was tested in triplicate. The sandwich plate was incubated at room temperature for 18 h. After the permeation time, the PAMPA sandwich plate was separated. The concentration of LM-031 in the acceptor and donor wells was determined using QTRAP 6500 mass spectrometer (AB SCIEX, Singapore) linked to 1200 HPLC system (Agilent Technologies, Palo Alto, CA, USA).
# [3] = system: NRF2; assay: Western blot of NRF2 in ∆K280 TauRD‐DsRed SH‐SY5Y cells; assay type: cell-based, human; conditions: 1 µM
# Description: To knock down CREB expression in ∆K280 TauRD-DsRed SH-SY5Y cells, lentiviral short hairpin RNA (shRNA) targeting CREB (TRCN0000226466), NRF2 (TRCN0000007558), and a negative control scrambled (TRC2.Void) were obtained from National RNAi Core Facility, IMB/GRC, Academia Sinica, Taipei, Taiwan. On day 1, cells were plated on 6-well plates (for protein analysis) or 24-well plates (for neurite outgrowth analysis) in the presence of retinoic acid as described. On the second day, the cells were infected with lentivirus (multiplicity of infection: 3) in medium with polybrene (8 µg/mL; Sigma-Aldrich). On day 3, the culture medium was changed and the cells were pretreated with LM-031 (1 µM) for 8 h, followed by induction of ∆K280 TauRD-DsRed expression. On day 9, the cells were collected for NRF2, CREB, pCREB, and cleaved CASP3 protein analysis or analyzed for neurite outgrowth as described.
# (§1) Total proteins from ∆K280 TauRD-DsRed SH-SY5Y cells were obtained using a RIPA buffer containing 50 mM Tris-HCl (pH8.0), 150 mM NaCl, 2 mM EDTA (pH8.0), 50 mM NaF, 0.1% SDS, 0.5% sodium deoxycholate, 1% NP40, and a protease inhibitor cocktail (Sigma-Aldrich). After sonication and sitting on ice for 20 min, the lysates were centrifuged at 14,000 × g for 30 min at 4°C. Protein concentrations were determined using a protein assay kit (Bio-Rad, Hercules, CA, USA), with albumin as a standard. Total proteins (20 µg) were electrophoresed on 10% or 12% SDS-polyacrylamide gel and transferred onto polyvinylidene difluoride (PVDF) membranes (Sigma-Aldrich) through reverse electrophoresis. […] Subsequently, immune complexes were detected using a horseradish peroxidase-conjugated goat anti-mouse or goat anti-rabbit IgG antibody (1:5000; GeneTex, Irvive, CA, USA) and a chemiluminescent substrate (Millipore).
# [4] = system: NQO1; assay: Western blot of NQO1 in ∆K280 TauRD‐DsRed SH‐SY5Y cells; assay type: cell-based, human; conditions: 1 µM; induced untreated 79%, uninduced 100%
# Description: as §1
smiles,measurement,setting,value
"O=C(c1ccccc1)c1cc2c(O)cccc2oc1=O [LM‐031, 3‐benzoyl‐5‐hydroxychromen‐2‐one]",sarkosyl‐insoluble Tau aggregates by TEM,[1],reduced Tau aggregates
same,"Papp at 18 h, 1 µM",[2],4.8 ± 0.12 ×10⁻⁶ cm/s
same,NRF2 protein level,"[3]; induced untreated 75%, uninduced 100%",109%
same,NRF2 level,"[3]; NRF2‐specific shRNA‐infected cells, untreated 74%",98%
same,NRF2 level,"[3]; scrambled shRNA‐infected cells, untreated 70%, uninduced 100%",105%
same,NQO1 protein level,[4],94%
